Experimental data published in ChEMBL document CHEMBL3046623, “A search of novel antimicrobial based on benzimidazole and 2-pyridone heterocycles” (2012).
Values after ≈ are worked out from the molar mass of the structure shown.

How the values were obtained:
Assay type in all cases: functional
Staphylococcus aureus = experiment: Antibacterial activity against Staphylococcus aureus MTCC 96 after 24 to 48 hr by serial dilution method
Candida albicans = experiment: Antifungal activity against Candida albicans MTCC 227 after 72 hr; settings: MTCC 227, 72 h
Aspergillus clavatus = experiment: Antifungal activity against Aspergillus clavatus MTCC 1323 after 72 hr; settings: MTCC 1323, 72 h
Pseudomonas aeruginosa = experiment: Antibacterial activity against Pseudomonas aeruginosa MTCC 1688 after 24 to 48 hr by serial dilution method
Escherichia coli = experiment: Antibacterial activity against Escherichia coli MTCC 443 after 24 to 48 hr by serial dilution method
Aspergillus niger = experiment: Antifungal activity against Aspergillus niger MTCC 282 after 72 hr; settings: MTCC 282, 72 h
Streptococcus pyogenes = experiment: Antibacterial activity against Streptococcus pyogenes MTCC 442 after 24 to 48 hr by serial dilution method

SMILES	MIC99 (Staphylococcus aureus) [µg/mL]	MIC99 (Candida albicans) [µg/mL]	MIC99 (Aspergillus clavatus) [µg/mL]	MIC99 (Pseudomonas aeruginosa) [µg/mL]	MIC99 (Escherichia coli) [µg/mL]	MIC99 (Aspergillus niger) [µg/mL]	MIC99 (Streptococcus pyogenes) [µg/mL]
C/C(=N\n1c(/N=C/c2ccc([N+](=O)[O-])cc2)c(C#N)c(-c2ccccc2O)c(C#N)c1=O)c1nc2ccccc2[nH]1	250 (≈ 461 µM)	500 (≈ 922 µM)	1000 (≈ 1840 µM)	250 (≈ 461 µM)	250 (≈ 461 µM)	1000 (≈ 1840 µM)	250 (≈ 461 µM)
C/C(=N\n1c(/N=C/c2ccc(N(C)C)cc2)c(C#N)c(-c2ccccc2O)c(C#N)c1=O)c1nc2ccccc2[nH]1	100 (≈ 185 µM)	200 (≈ 370 µM)	500 (≈ 925 µM)	100 (≈ 185 µM)	62.5 (≈ 116 µM)	500 (≈ 925 µM)	100 (≈ 185 µM)
COc1cc(/C=N/c2c(C#N)c(-c3ccccc3O)c(C#N)c(=O)n2/N=C(\C)c2nc3ccccc3[nH]2)ccc1O	250 (≈ 460 µM)	1000 (≈ 1840 µM)	1000 (≈ 1840 µM)	100 (≈ 184 µM)	200 (≈ 368 µM)	1000 (≈ 1840 µM)	250 (≈ 460 µM)
COc1cc(/C=N/c2c(C#N)c(-c3ccccc3O)c(C#N)c(=O)n2/N=C(\C)c2nc3ccccc3[nH]2)cc(OC)c1OC	250 (≈ 425 µM)	1000 (≈ 1700 µM)	100 (≈ 170 µM)	250 (≈ 425 µM)	200 (≈ 340 µM)	1000 (≈ 1700 µM)	500 (≈ 851 µM)
CC1(C)S[C@@H]2[C@H](NC(=O)[C@H](N)c3ccccc3)C(=O)N2[C@H]1C(=O)O [AMPICILLIN]	250 (≈ 715 µM)	–	–	100 (≈ 286 µM)	100 (≈ 286 µM)	–	100 (≈ 286 µM)
COC1=CC(=O)C[C@@H](C)[C@]12Oc1c(Cl)c(OC)cc(OC)c1C2=O [GRISEOFULVIN]	–	500 (≈ 1420 µM)	100 (≈ 283 µM)	–	–	100 (≈ 283 µM)	–

Further lines, results first:

MIC99 (Staphylococcus aureus) [µg/mL]	MIC99 (Candida albicans) [µg/mL]	MIC99 (Aspergillus clavatus) [µg/mL]	MIC99 (Pseudomonas aeruginosa) [µg/mL]	MIC99 (Escherichia coli) [µg/mL]	MIC99 (Aspergillus niger) [µg/mL]	MIC99 (Streptococcus pyogenes) [µg/mL]	SMILES
200 (≈ 369 µM)	500 (≈ 922 µM)	1000 (≈ 1840 µM)	500 (≈ 922 µM)	500 (≈ 922 µM)	1000 (≈ 1840 µM)	200 (≈ 369 µM)	C/C(=N\n1c(/N=C/c2cccc([N+](=O)[O-])c2)c(C#N)c(-c2ccccc2O)c(C#N)c1=O)c1nc2ccccc2[nH]1
100 (≈ 188 µM)	1000 (≈ 1880 µM)	1000 (≈ 1880 µM)	25 (≈ 47 µM)	250 (≈ 470 µM)	100 (≈ 188 µM)	250 (≈ 470 µM)	C/C(=N\n1c(/N=C/c2ccccc2Cl)c(C#N)c(-c2ccccc2O)c(C#N)c1=O)c1nc2ccccc2[nH]1
100 (≈ 188 µM)	500 (≈ 940 µM)	1000 (≈ 1880 µM)	250 (≈ 470 µM)	100 (≈ 188 µM)	1000 (≈ 1880 µM)	250 (≈ 470 µM)	C/C(=N\n1c(/N=C/c2ccc(Cl)cc2)c(C#N)c(-c2ccccc2O)c(C#N)c1=O)c1nc2ccccc2[nH]1
250 (≈ 502 µM)	200 (≈ 402 µM)	200 (≈ 402 µM)	50 (≈ 100 µM)	100 (≈ 201 µM)	100 (≈ 201 µM)	100 (≈ 201 µM)	C/C(=N\n1c(/N=C/c2ccccc2)c(C#N)c(-c2ccccc2O)c(C#N)c1=O)c1nc2ccccc2[nH]1
200 (≈ 389 µM)	500 (≈ 974 µM)	1000 (≈ 1950 µM)	150 (≈ 292 µM)	150 (≈ 292 µM)	1000 (≈ 1950 µM)	200 (≈ 389 µM)	C/C(=N\n1c(/N=C/c2ccccc2O)c(C#N)c(-c2ccccc2O)c(C#N)c1=O)c1nc2ccccc2[nH]1
200 (≈ 389 µM)	500 (≈ 974 µM)	1000 (≈ 1950 µM)	250 (≈ 487 µM)	250 (≈ 487 µM)	1000 (≈ 1950 µM)	500 (≈ 974 µM)	C/C(=N\n1c(/N=C/c2cccc(O)c2)c(C#N)c(-c2ccccc2O)c(C#N)c1=O)c1nc2ccccc2[nH]1
250 (≈ 487 µM)	500 (≈ 974 µM)	100 (≈ 195 µM)	150 (≈ 292 µM)	150 (≈ 292 µM)	1000 (≈ 1950 µM)	50 (≈ 97.4 µM)	C/C(=N\n1c(/N=C/c2ccc(O)cc2)c(C#N)c(-c2ccccc2O)c(C#N)c1=O)c1nc2ccccc2[nH]1
